Source: ChEMBL document CHEMBL4811318, “Pyrrolo[1,2-a]quinoxal-5-inium salts and 4,5-dihydropyrrolo[1,2-a]quinoxalines: Synthesis, activity and computational docking for protein tyrosine phosphatase 1B” (Bioorg Med Chem, 2021)

What was measured:
[1] = biological target: T1, Tyrosine-protein phosphatase non-receptor type 1 (Homo sapiens) (UniProt P18031); experiment: Inhibition of recombinant human PTP1B (1 to 322 residues) expressed in Escherichia coli at 1 uM using IR5 (1142 to 1153 residues) as substrate incubated for 30 mins by spectrophotometry analysis relative to control
T1 sequence (whole entry): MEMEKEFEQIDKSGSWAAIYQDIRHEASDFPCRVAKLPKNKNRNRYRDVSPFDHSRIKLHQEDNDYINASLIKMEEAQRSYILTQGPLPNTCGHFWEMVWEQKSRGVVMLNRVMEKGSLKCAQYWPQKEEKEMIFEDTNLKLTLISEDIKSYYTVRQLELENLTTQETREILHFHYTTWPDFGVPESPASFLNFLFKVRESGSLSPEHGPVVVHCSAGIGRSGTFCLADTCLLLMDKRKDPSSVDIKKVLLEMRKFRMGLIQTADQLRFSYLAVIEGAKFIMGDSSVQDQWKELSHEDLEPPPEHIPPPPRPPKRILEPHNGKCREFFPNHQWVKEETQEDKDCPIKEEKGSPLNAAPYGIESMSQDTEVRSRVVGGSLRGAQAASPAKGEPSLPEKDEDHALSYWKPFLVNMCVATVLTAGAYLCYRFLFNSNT

[2] = biological target: T2, Tyrosine-protein phosphatase non-receptor type 1 (Homo sapiens, UniProt P18031); experiment: Inhibition of recombinant human PTP1B (1 to 322 residues) expressed in Escherichia coli using pNPP as substrate
T2 sequence (P18031 whole entry): T1 sequence (whole entry)

HepG2 = experiment: Cytotoxicity against human HepG2 cells assessed as […] cell viability at 50 uM measured after 24 hrs by MTT assay relative to control; assay type: cell-based; settings: hepg2, 24 h
[3] = biological target: T3, Tyrosine-protein phosphatase non-receptor type 2 (Homo sapiens, UniProt P17706); experiment: Inhibition of recombinant human TC-PTP (2 to 315 residues) expressed in Escherichia coli using pNPP as substrate
T3 sequence (P17706 whole entry): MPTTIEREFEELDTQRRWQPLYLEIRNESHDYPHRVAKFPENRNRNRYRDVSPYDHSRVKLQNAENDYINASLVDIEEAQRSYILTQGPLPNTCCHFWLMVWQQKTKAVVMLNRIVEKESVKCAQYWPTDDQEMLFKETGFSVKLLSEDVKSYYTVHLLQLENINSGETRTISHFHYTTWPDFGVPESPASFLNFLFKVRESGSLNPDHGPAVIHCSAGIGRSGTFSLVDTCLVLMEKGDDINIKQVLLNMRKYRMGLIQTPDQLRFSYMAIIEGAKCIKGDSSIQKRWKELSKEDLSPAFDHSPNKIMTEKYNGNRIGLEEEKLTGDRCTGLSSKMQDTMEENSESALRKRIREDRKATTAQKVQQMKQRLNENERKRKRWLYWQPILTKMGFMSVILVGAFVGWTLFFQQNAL

Homo sapiens = organism: Homo sapiens; experiment: Selectivity index, ratio of IC50 for recombinant human TC-PTP (2 to 315 residues) to IC50 for recombinant human PTP1B (1 to 322 residues) expressed in Escherichia coli
[4] = biological target: T2, Tyrosine-protein phosphatase non-receptor type 1; experiment: Inhibition of PTP1B (unknown origin)
C2C12 = experiment: Induction of glucose uptake in mouse C2C12 cells at 2 uM pretreated with insulin for 30 mins followed by compound treatment for 90 mins by fluorescence microplate reader assay relative to control; assay type: functional; settings: 1.5 h
[5] = Stability of the compound measured up to 5 days; assay type: physicochemical; settings: 120 h; time <=5 day
[6] = Stability of the compound measured after 5 days; assay type: physicochemical; settings: 120 h; time 5 day
[7] = Stability of the compound measured after 2 months at 4 degreeC; assay type: physicochemical; settings: 1460 h

COc1ccc2c(c1)[n+](C)c(C)c1cccn12.[I-]
inhibition [1]: 22% | IC50 [2]: > 10000 nM | Activity (HepG2): > 90%

Cc1nc2ccc(Cl)cc2n2cccc12
IC50 [2]: 600 nM | IC50 [3]: > 25000 nM | Ratio IC50 (Homo sapiens): > 41 | Activity (HepG2): > 90%

Cc1nc2cc(C(F)(F)F)ccc2n2cccc12
IC50 [2]: > 10000 nM | Activity (HepG2): > 90%

c1ccc(Cc2nc3ccccc3n3cccc23)cc1
IC50 [4]: 240 nM

CC1c2cccn2-c2ccccc2N1C (stereo not drawn)
inhibition [1]: 56% | IC50 [2]: 510 nM | IC50 [3]: 500 nM | Ratio IC50 (Homo sapiens): 0.98 | Activity (HepG2): > 90%

COc1ccc2c(c1)nc(C)c1cccn12
IC50 [2]: > 10000 nM | Activity (HepG2): > 90%

Cc1c2cccn2c2ccccc2[n+]1C.[I-]
inhibition [1]: 22% | IC50 [2]: 320 nM | Activity (HepG2): > 90%

C=C(C)[C@@H]1CC[C@]2(C)CC[C@]3(C)[C@H](CC[C@@H]4[C@@]5(C)CC[C@H](O)C(C)(C)[C@@H]5CC[C@]43C)[C@@H]12 [LUPEOL]
IC50 [4]: 560 nM

Cc1ccc2c(c1)NC(C)c1cccn1-2 (stereo not drawn)
inhibition [1]: 56%

Cc1cc2nc(C)c3cccn3c2cc1C
IC50 [2]: > 10000 nM | Activity (HepG2): > 90%

Cc1c2cccn2c2cc(Cl)ccc2[n+]1C.[I-]
inhibition [1]: 22% | IC50 [2]: 830 nM | IC50 [3]: > 5000 nM | Ratio IC50 (Homo sapiens): > 6.02 | Activity (HepG2): > 90%

CC1Nc2cc(C(F)(F)F)ccc2-n2cccc21 (stereo not drawn)
inhibition [1]: 56% | Activity (HepG2): > 90%

COc1ccc2c(c1)NC(C)c1cccn1-2 (stereo not drawn)
inhibition [1]: 56% | IC50 [2]: 1390 nM | Activity (HepG2): > 90%

CC1Nc2cc(Cl)c(Cl)cc2-n2cccc21 (stereo not drawn)
inhibition [1]: 56% | IC50 [2]: 950 nM | IC50 [3]: > 5000 nM | Ratio IC50 (Homo sapiens): > 5.26 | Activity (HepG2): > 90% | Activity (C2C12): 150%

Cc1nc2cc(Cl)c(Cl)cc2n2cccc12
IC50 [2]: 570 nM | IC50 [3]: > 25000 nM | Ratio IC50 (Homo sapiens): > 43 | Activity (HepG2): > 90%

Cc1cc2c(cc1C)-n1cccc1C(C)N2 (stereo not drawn)
inhibition [1]: 56% | Activity (HepG2): > 90%

Cc1ccc2c(c1)[n+](C)c(C)c1cccn12.[I-]
inhibition [1]: 22% | IC50 [2]: > 10000 nM | Activity (HepG2): > 90%

CC1Nc2ccc(Cl)cc2-n2cccc21 (stereo not drawn)
inhibition [1]: 56% | IC50 [2]: 450 nM | IC50 [3]: > 5000 nM | Ratio IC50 (Homo sapiens): > 11.1 | Activity (HepG2): > 90%

CC1Nc2ccccc2-n2cccc21 (stereo not drawn)
inhibition [1]: 56% | IC50 [2]: 410 nM | Activity (HepG2): > 90% | Stabilty [5]: Stable | Stabilty [6]: Unstable | Stabilty [7]: Stable

CC1(C)CC[C@]2(C(=O)O)CC[C@@H]3C(=CC[C@H]4[C@H]3CC[C@@H]3[C@@H]4CC[C@H](O[C@@H]4O[C@H](CO)[C@@H](O)[C@H](O)[C@H]4O)C3(C)C)[C@@H]2C1
IC50 [4]: 1400 nM

C=C(C)[C@@H]1CC[C@]2(C(=O)O)CC[C@]3(C)[C@H](CC[C@@H]4[C@@]5(C)CC[C@H](O)C(C)(C)[C@@H]5CC[C@]43C)[C@@H]12 [BETULINIC ACID]
IC50 [4]: 1500 nM

Cc1nc2ccccc2n2cccc12
IC50 [3]: 3950 nM | Ratio IC50 (Homo sapiens): 4 | Activity (HepG2): > 90%

CCCC[n+]1c(C)c2cccn2c2ccccc21.[I-]
inhibition [1]: 22% | IC50 [2]: 1910 nM | Activity (HepG2): > 90%

Cc1cc2c(cc1C)[n+](C)c(C)c1cccn12.[I-]
inhibition [1]: 22% | Activity (HepG2): > 90%

Cc1c2cccn2c2ccc(C(F)(F)F)cc2[n+]1C.[I-]
inhibition [1]: 22% | IC50 [2]: 580 nM | IC50 [3]: 410 nM | Ratio IC50 (Homo sapiens): 0.71 | Activity (HepG2): > 90%

Cc1ccc2c(c1)nc(C)c1cccn12
IC50 [2]: > 10000 nM | Activity (HepG2): > 90%

CCCCCCS(=O)(=O)NC(=O)c1ccc(CSCc2ccc(-c3ccccc3)cc2)cc1
IC50 [4]: 250 nM
